Laboratory results: patent US20250002463A1, “NEW SALT FORMS OF AMILORIDE AND ITS DERIVATIVES FOR PHARMACEUTICAL USE” (PSOMRI Holding AB, priority 2021, published 2025)

Columns and labels:
[1] = Polymorphism: solid forms found in salt screen by HT-XRPD; type: physicochemical; settings: DME, THF; for Polymorphism: Example 1 salt screen in MeOH; for salt polymorphs found from all three crystallization solvents: Example 2, MeOH
Method: (§1) The precipitated solids were analyzed by high throughput X-ray powder diffractometry (HT XRPD). Liquid phases (both solutions and mother liquors) were evaporated at ambient conditions and the residual solids were analyzed by HT XRPD.
The salt screen experiments were carried out in methanol (MeOH), 1,2-dimethoxyethane (DME) and tetrahydrofuran (THF).

[2] = Physical stability under Accelerated Aging Conditions (AAC, 40° C./75% RH, 2 days), HT-XRPD; settings: for Physically stable after AAC: Example 1; for Physically stable after AAC / physical stability upon exposure to AAC: 40° C./75% RH for 2 days; for Physical Stability: AAC 40° C./75% RH, 2 days, re-analyzed by HT-XRPD; for physical stability upon exposure to AAC: Example 2
Method: The solids were separated from the liquid phases by centrifugation, dried overnight under vacuum at 50° C. and analyzed by HT-XRPD. Solvents from the remaining mother liquors and solutions were evaporated under ambient conditions (evaporative crystallization experiments) and the residual solids were analyzed by HT-XRPD.
Slurries of the amorphous solids (GEN9 and GEN16, respectively) were prepared in 15 solvents at room temperature. The suspensions were subjected to a temperature profile, which comprised of three heating and cooling cycles. At the end of the temperature profile, the solids were isolated by centrifugation and dried at ambient conditions and under vacuum at 50° C. Upon completion of all crystallization experiments, all solids were analyzed by HT-XRPD.

[3] = Crystallinity of salt forms by HT-XRPD; type: physicochemical; settings: salt screen solid forms
Method: as §1
XRPD patterns were obtained using the Ardena T2 high-throughput XRPD set-up. The plates were mounted on a Bruker General Area Detector Diffraction System (GADDS) equipped with a VÅNTEC-500 gas area detector corrected for intensity and geometric variations. The calibration of the measurement accuracy (peaks position) was performed using NIST SRM1976 standard (Corundum).
No background subtraction or curve smoothing was applied to the XRPD patterns.

| Compound | Polymorphism [1] | Physically stable after AAC [2] | Physically stable after AAC ([2]; listed as TAR1 pc) | salt polymorphs found from all three crystallization solvents [1] | Crystallinity [3] | Physical Stability [2] | physical stability upon exposure to AAC [2] |
| --- | --- | --- | --- | --- | --- | --- | --- |
| N=C(NCc1ccccc1)NC(=O)c1nc(Cl)c(N)nc1N.O=C(O)C(O)C(O)C(=O)O [TAR1] | Unclear | physically stable | Yes |  |  |  |  |
| NC(=NC(=O)c1nc(Cl)c(N)nc1N)NCc1ccccc1.NC(=NC(=O)c1nc(Cl)c(N)nc1N)NCc1ccccc1.O=S(=O)(O)O [SUL1] | Yes | physically stable and Yes |  |  |  |  |  |
| CC(=O)O.NC(=NC(=O)c1nc(Cl)c(N)nc1N)NCc1ccccc1 [ACA2] | Yes | physically stable and Yes |  |  |  |  |  |
| NC(=NC(=O)c1nc(Cl)c(N)nc1N)NCc1ccccc1.O=C(O)c1cccnc1 [NIC1] |  |  |  | only one salt polymorph | Good | Stable | physically stable |
| NC(=NC(=O)c1nc(Cl)c(N)nc1N)NCc1ccccc1.NC(=NC(=O)c1nc(Cl)c(N)nc1N)NCc1ccccc1.O=S(=O)(O)CCS(=O)(=O)O [EDY4] |  |  |  |  | Good | Unstable |  |
| CC(C)(C)C(=O)O.NC(=NC(=O)c1nc(Cl)c(N)nc1N)NCc1ccccc1 [PIV1] |  |  |  | only one salt polymorph | Good | Stable | physically stable |
| NC(=NC(=O)c1nc(Cl)c(N)nc1N)NCc1ccccc1.O=C(O)c1cc2ccccc2c(Cc2c(O)c(C(=O)O)cc3ccccc23)c1O [PAM2] |  |  |  |  | Poor | Stable | physically stable |
| NC(=NC(=O)c1nc(Cl)c(N)nc1N)NCc1ccccc1.O=C(O)c1ccccc1O [SAL1] |  |  |  |  | Good | Stable | physically stable |
| NC(=NC(=O)c1nc(Cl)c(N)nc1N)NCc1ccccc1.O=S(=O)(O)CCS(=O)(=O)O [EDY2] |  |  |  |  | Good | Stable | physically stable |
| PAM3 |  |  |  |  | Poor | Unstable |  |
| Br.Br.NC(=NC(=O)c1nc(Cl)c(N)nc1N)NCc1ccccc1 [HBR3] |  |  |  |  | Moderate | Unstable |  |
| NC(=NC(=O)c1nc(Cl)c(N)nc1N)NCc1ccccc1.O=S(=O)(O)c1cccc2c(S(=O)(=O)O)cccc12 [NDS1] |  |  |  | only one salt polymorph | Good | Stable | physically stable |
| NC(=NC(=O)c1nc(Cl)c(N)nc1N)NCc1ccccc1.O=C(O)c1ccccc1 [BNZ3] | Yes | physically stable and Yes |  |  |  |  |  |
| NC(=NC(=O)c1nc(Cl)c(N)nc1N)NCc1ccccc1.O=C(O)C=CC(=O)O [MAE2] |  |  |  |  | Good | Stable | physically stable |
| N=C(NCc1ccccc1)NC(=O)c1nc(Cl)c(N)nc1N.O=S(=O)(O)c1ccccc1 [BES2] |  |  |  |  | Good | Unstable |  |
| NC(=NC(=O)c1nc(Cl)c(N)nc1N)NCc1ccccc1.O=C(O)C=Cc1ccccc1 [CIN2] |  |  |  |  | Good | Stable | physically stable |
| NC(=NC(=O)c1nc(Cl)c(N)nc1N)NCc1ccccc1.O=S(=O)(O)CCS(=O)(=O)O [EDY3] |  |  |  |  | Good | Stable | physically stable |
| Cl.N/C(=N\C(=O)c1nc(Cl)c(N)nc1N)NCc1ccccc1 [Benzamil HCl SM1, reference compound] | Yes | No |  |  |  |  |  |
